Data: patent US20100303790A1, “USE OF BILIVERDIN REDUCTASE (BVR) AND BVR PEPTIDE FRAGMENTS TO TREAT CORONARY DISORDERS” (UNIVERSITY OF ROCHESTER, priority 2009, published 2010)
“Also recorded” adds a separate entry of the source.

How the values were obtained:
BVR = target: T1, BVR (Rattus norvegicus, UniProt P46844); assay: Langendorff perfused heart: BVR activity (biliverdin to bilirubin, pH 6.7); type: in vivo
T1 construct: Cardiomyocytes and heart tissue samples were lysed in buffer containing 100 mM sodium phosphate pH 7.4; from tissue; host or cells: isolated Langendorff-perfused rat heart, lysate
T1 sequence (P46844 3-295): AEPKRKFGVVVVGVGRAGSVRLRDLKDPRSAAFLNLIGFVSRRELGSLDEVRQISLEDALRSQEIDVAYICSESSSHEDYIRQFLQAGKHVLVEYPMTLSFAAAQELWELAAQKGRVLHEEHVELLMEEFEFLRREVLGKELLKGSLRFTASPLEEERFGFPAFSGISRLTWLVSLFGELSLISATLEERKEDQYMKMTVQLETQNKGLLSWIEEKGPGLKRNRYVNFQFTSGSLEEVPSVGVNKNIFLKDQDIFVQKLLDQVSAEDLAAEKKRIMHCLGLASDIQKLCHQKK
From the text: In Vivo Experimental Langendorff Model: Male Sprague-Dawley rats weighing 250-300 g (Charles River, Boston, Mass.) were used in this study; the protocol is based on that described by Tompkins et al., “Mitochondrial Dysfunction in Cardiac Ischemia-Reperfusion Injury: ROS From Complex I, Without Inhibition,” Biochim Biophys Acta 1762:223-231 (2006), which is hereby incorporated by reference in its entirety, with minor modification. The rats were fed a standard rat chow and had water ad libitum. All experiments were approved by the University of Rochester Institutional Animal Care and Use Committee. Rats were given two subcutaneous injections of isoproterenol (ISO) (0.01 mg/kg), 6 hours apart, then anesthetized with freshly prepared Avertin (2,2,2-tribromoethanol, […] injected intraperitoneally), and treated with heparin (5000 U/kg), i.p., to protect the heart against microthrombi. The aorta was cannulated in situ with a 22-gauge needle filled with warm Krebs-Henseleit (KH) buffer. The heart was rapidly transferred (<10 s.) to a perfusion apparatus, and retrograde (Langendorff) perfusion begun with 37° C. […] Hemodynamics and heart rate were recorded by inserting a water-filled balloon connected to a transducer (Radnoti LLC, model no. 159904B) into the left ventricle. […]
Measurement of BVR Activity: Cardiomyocytes and heart tissue samples were lysed in buffer containing 100 mM sodium phosphate pH 7.4, 1% Nonidet-P-40, 10% glycerol, 0.2 mM dithiothoeitol, 10 mM NaF, protease inhibitor mixture (10 μg/ml aprotinin, 10 μg/ml leupeptin, 10 μg/ml pepstatin, and 0.1 mM phenylmethylsulfonyl fluoride). BVR activity was measured at pH 6.7 as described previously (Huang et al., “Detection of 10 Variants of Biliverdin Reductase in Rat Liver by Two-Dimensional Gel Electrophoresis,”J Biol Chem 264:7844-7849 (1989), which is hereby incorporated by reference in its entirety). The rate of conversion of biliverdin to bilirubin was determined as the increase in absorbance at 450 nm at 25° C. Specific activity is expressed as nanomoles of bilirubin/min/mg of protein. […]

[1] = tested on: cardiomyocytes in the intact heart; assay: Langendorff perfused heart: apoptosis (TUNEL, genomic DNA fragmentation); type: in vivo, rat; settings: for apoptosis in cardiomyocytes of the perfused heart (TUNEL): 0.1 μM ISO, peptides 25 μM together with ISO
From the text: Analysis of Apoptosis: The terminal deoxyribonucleotide transferase-mediated dUTP nick-end labeling (TUNEL) assay was used to detect in situ DNA fragmentation, using the In Situ Cell Death Detection Kit (Roche) as described previously (Ding et al., “Functional Role of Phosphodiesterase 3 in Cardiomyocyte Apoptosis: Implication in Heart Failure,” Circulation 111:2469-2476 (2005), which are hereby incorporated by reference in their entirety). In addition, the cells were stained for cardiomyocyte-specific sarcomeric α-actinin with the antibody EF-53 to distinguish cardiomyocytes from contaminating fibroblasts; and only EF-53 positive cells were counted. Three independent experiments were performed and an average of 1,000 EF-53 positive cells from random fields were analyzed.
DNA Electrophoresis: Total cellular DNA was isolated from untreated and treated cells by lysis in 10 mM Tris-HCl, pH 7.8; 1 mM, EDTA, 10 mM NaCl, 1% (w/v) SDS and 1 mg/ml proteinase K at 60° C. for 2 hours. The lysate was extracted twice each with phenol-choloroform (1:1, v/v) and chloroform, followed by precipitation with ethanol. The precipitate was collected by centrifugation, washed once in 70% ethanol, and resuspended in TE containing 1 mg/ml RNase at 37° C. for 30 min. DNA was resolved by electrophoresis in 2.0% agarose gels containing ethidium bromide.
In Vivo Experimental Langendorff Model: Male Sprague-Dawley rats weighing 250-300 g (Charles River, Boston, Mass.) were used in this study; the protocol is based on that described by Tompkins et al., “Mitochondrial Dysfunction in Cardiac Ischemia-Reperfusion Injury: ROS From Complex I, Without Inhibition,” Biochim Biophys Acta 1762:223-231 (2006), which is hereby incorporated by reference in its entirety, with minor modification. The rats were fed a standard rat chow and had water ad libitum. All experiments were approved by the University of Rochester Institutional Animal Care and Use Committee. Rats were given two subcutaneous injections of isoproterenol (ISO) (0.01 mg/kg), 6 hours apart, then anesthetized with freshly prepared Avertin (2,2,2-tribromoethanol, […] injected intraperitoneally), and treated with heparin (5000 U/kg), i.p., to protect the heart against microthrombi. The aorta was cannulated in situ with a 22-gauge needle filled with warm Krebs-Henseleit (KH) buffer. The heart was rapidly transferred (<10 s.) to a perfusion apparatus, and retrograde (Langendorff) perfusion begun with 37° C. KH buffer gassed with 95% O2 plus 5% CO2, in constant flow mode (12 ml/min). […] Hemodynamics and heart rate were recorded by inserting a water-filled balloon connected to a transducer (Radnoti LLC, model no. 159904B) into the left ventricle. […]

isolated perfused heart = assay: Langendorff perfused heart: left ventricle contractile function and heart rate; type: in vivo, rat; settings: for left ventricle contractile function (systolic pressure, developed pressure, dp/dt, -dp/dt): peptide 25 μM with 0.1 μM isoproterenol, vs isoproterenol alone
From the text: In Vivo Experimental Langendorff Model: Male Sprague-Dawley rats weighing 250-300 g (Charles River, Boston, Mass.) were used in this study; the protocol is based on that described by Tompkins et al., “Mitochondrial Dysfunction in Cardiac Ischemia-Reperfusion Injury: ROS From Complex I, Without Inhibition,” Biochim Biophys Acta 1762:223-231 (2006), which is hereby incorporated by reference in its entirety, with minor modification. The rats were fed a standard rat chow and had water ad libitum. All experiments were approved by the University of Rochester Institutional Animal Care and Use Committee. Rats were given two subcutaneous injections of isoproterenol (ISO) (0.01 mg/kg), 6 hours apart, then anesthetized with freshly prepared Avertin (2,2,2-tribromoethanol, […] injected intraperitoneally), and treated with heparin (5000 U/kg), i.p., to protect the heart against microthrombi. The aorta was cannulated in situ with a 22-gauge needle filled with warm Krebs-Henseleit (KH) buffer. The heart was rapidly transferred (<10 s.) to a perfusion apparatus, and retrograde (Langendorff) perfusion begun with 37° C. KH buffer gassed with 95% O2 plus 5% CO2, in constant flow mode (12 ml/min). Perfusion was performed using 0.1 μM ISO or KH buffer as a control; the hBVR-derived peptides KKRILHC^281 (25 μM) or KYCCSRK^296 (25 μM) were included in perfusion medium with or without ISO. Hemodynamics and heart rate were recorded by inserting a water-filled balloon connected to a transducer (Radnoti LLC, model no. 159904B) into the left ventricle. The transducer was connected to a data acquisition system (DATAQ Instrument, Akron Ohio, Model: DI-205). At the end of each experiment, the heart was cut into 5 μm sections for TUNEL study or homogenized for western blots.
The effect of peptides on the integrity of the heart was also examined in the perfusion system, by measuring left ventricle contractile function in the presence of isoproterenol as a function of time.

[2] = peptide 25 μM with isoproterenol

Compound | BVR activity (BVR; peptide 25 μM alone) | BVR reductase activity (BVR; peptide 25 μM and 0.1 μM ISO) | apoptosis in cardiomyocytes of the perfused heart (TUNEL) [1] | left ventricle contractile function (systolic pressure, developed pressure, dp/dt, -dp/dt) (isolated perfused heart) | change in heart rate observed with isoproterenol alone (isolated perfused heart; [2]) | BVR activity (BVR; peptide 25 μM, whether ISO was present or not) | fragmentation of genomic DNA from perfused heart ([1]; peptide 25 μM with ISO) | time after initiating perfusion by which the increased rate of decline was observed (isolated perfused heart; [2]) [min] | heart rate, left ventricular systolic pressure, development pressure, dp/dt, -dp/dt over the course of the experiment (isolated perfused heart; 0.1 μM isoproterenol perfusion)
KYCCSRK (biliverdin reductase peptide) [KYCCSRK^296] | increased BVR activity | significant activation | decreased apoptosis; also recorded: nearly complete reduction in apoptosis | slowed the decrease in contractile function; also recorded: improved cardiac function | Neither peptide affected the change in heart rate | – | – | – | –
KKRILHC (biliverdin reductase peptide) [KKRILHC^281] | – | – | increase in apoptosis; also recorded: significant increases in apoptosis | the rate of decline was increased; also recorded: significantly diminished cardiac function | Neither peptide affected the change in heart rate | blocked the activity of BVR | fragmentation is detectable | ≤ 30 | –
CC(C)NCC(O)c1ccc(O)c(O)c1 (stereo not shown) [isoproterenol] | – | – | increased apoptosis | – | – | – | – | – | declined
